Drawing on US20170066759A1, “AROMATIC 5-MEMBERED HETEROCYCLIC DERIVATIVE HAVING TRPV4-INHIBITING ACTIVITY” (Shionogi & Co., Ltd., priority 2012, published 2017), this text covers IC50 and Ki for 36 compounds.

Common to all, as to format: cell-based
The target in experiment [1] is T1, human TRPV4 (hTRPV4/CHO cells) (Homo sapiens, UniProt Q9HBA0).
T1 construct: expressed in transfected cells; host or cells: CHO-K1
Kind of experiment: Test Example 1: TRPV4 inhibitory activity (IC50 value), 4α-PDD stimulation, Fluo4 calcium fluorescence (FLIPR TETRA). Conditions: Test Example 1, 4α-PDD stimulation, read-out: Test 1 IC50.

Experiment [2] has as its target T1, human TRPV4 (hTRPV4/CHO cells). Kind of experiment: Test Example 4: TRPV4 inhibitory activity (Ki value), 4α-PDD stimulation, Fluo-3 calcium fluorescence (FDSS 3000). Conditions: Test Example 4, 4α-PDD stimulation, read-out: Test 4 Ki. The protocol: TRPV4 Inhibitory Activity (Ki Value)
(§1) For each compound, TRPV4 inhibitory activity was measured using cells.
(§2) (Method) The procedures of evaluating TRPV4 inhibitory activity of a compound are as follows.
(§3) (1) TRPV4 inhibitory activity was measured using CHO-K1 cells stably expressing human TRPV4 (hTRPV4/CHO cells).
(2) Cells were subcultured using the MEM-α medium (SIGMA M4526: 500 ml), FBS (HyCloneSH30070.03: 10%), L-Glutamine 200 mmol/L (GIBCO: 4 mmol/L), P/S (nacalai tesque: 1%), G418 (nacalai tesque: 1 mg/mL).
(3) The 96-well plates which hTRPV4/CHO cells were seeded at densities of 2×10^4 cells/well in the culture medium in the day before the experimental day, and cultured in a CO2 incubator in the presence of 5% CO2 at 37° C. for 24 hours was used as assay plates.
(4) Cells were washed with assay buffer (Hank's Balanced Salt Solution 9.8 g, 1 mol/L HEPES (pH7.5), 250 mmol/L probenecid).
(5) Fluo-3, fluorescent dye for Ca influx assay was added to each well, then the assay plate was incubated in a CO2 incubator in the presence of 5% CO2 at 37° C. for one hour (final conc.; 5 μmol/L Fluo-3).
(6) The assay plate was washed with the assay buffer, and the buffer was remained at 30 μL/well. Then the assay plate was incubated for 10 min at 37° C.
(7) 20 μL of diluted compound solution was added to each well of assay plate, and mixed with built-in Pipette and Mixer of the fluorescence analysis system FDSS 3000 (Hamamatsu Photonics).
(8) 50 μL of 4α-PDD solution (concluding 0.1% Pluronic F-127) was applied to each well of assay plate and mixed.
(9) The fluorescent intensity was measured by FDSS 3000 for 8 min from the point of time addition the compound solution, at Ex 480 nm, Em 540 nm wavelength.
TRPV4 inhibitory activity (Ki value) of a compound was calculated according to the following procedure.
(10) In the presence of the compound, the difference between maximal and minimal of fluorescent intensity value for 8 min from just before addition of 4α-PDD solution was calculated, and it was referred as Max-Min value. Max-Min value of the Ruthenium Red at 10 μM was defined as 100% inhibitory activity, Max-Min value in the absence of the compound was defined as 0% inhibitory activity. TRPV4 inhibitory activity of the compound was calculated by the following formula.
(§4) (1−(Max−Min value of the compound−100% inhibitory activity)/(0% inhibitory activity−100% inhibitory activity))×100
(11) By the following formula, inhibitory activity was calculated at 10 points with three fold serial dilution, in the final concentration of the compound from 10 μmol/L to 0.5 nmol/L. The IC50 value was calculated by dose-response curve.
100−[(fluorescent intensity in the presence of the compound−fluorescent intensity of back ground)/(total fluorescent intensity−fluorescent intensity of back ground)]×100
(12) In the presence of the compound, activity of 4α-PDD was measured at 9 points with three fold serial dilution from 20 μmol/L. Activity of 4α-PDD was calculated by the following formula.
(Max−Min value of the each 4α-PDD concentration−0% activity)/(100% activity−0% activity))×100
(13) Effective activity was calculated in 4α-PDD the above. The EC50 value was calculated by dose-response curve.
(14) The Ki value of a compound was calculated by the following formula.
Ki=IC50 value/1+([A]/EC50)
[A]: Concentration of agonist (nmol/L)

Experiment [3] has the same target. Nature of the experiment: Test Example 2: TRPV4 inhibitory activity (IC50 value), 4α-PDD stimulation, Fluo3 calcium fluorescence (FLIPR). The protocol: TRPV4 Inhibitory Activity (IC50 Value)
as §1, §2, §3
(2) In the day before the experimental day, frozen cell were thawed and washed with the culture medium (MEM-α, 10% FBS, 4 mmol/L L-Glutamine, 50 unit Penicillin, 50 μg/mL Streptomycin). Then cells were suspended in the culture medium.
(3) The 384-well plates which hTRPV4/CHO cells were seeded at densities of 4000 cells/well in the culture medium and cultured in a CO2 incubator in the presence of 5% CO2 at 37° C. for 24 hours was used as assay plates.
(4) The assay plate was washed with assay buffer (Hanks, 20 mmol/L HEPES, 2.5 mmol/L probenecid, pH7.4), and the buffer were remained at 20 μL/well.
(5) 10 μl of dye loading buffer (9 μmol/L Fluo 3-AM, 0.09% Pluronic F-127, 1% BSA/assay buffer) was added to each well, then the assay plate was incubated in a CO2 incubator in the presence of 5% CO2 at 37° C. for one hour. (final conc.; 3 μmol/L Fluo3-AM).
(6) The assay plate was washed with the assay buffer, and the buffers were remained at 20 μL/well. Then the assay plate was incubated for 10 min at room temperature.
(7) 20 μL of diluted compound solution was added to each well of assay plate, and mixed with built-in Pipette and Mixer of the Fluorescence analysis system FLIPR 384 (Molecular devices).
(8) After incubation for 4 min, 25 μL of 4α-PDD solution were applied to each well of assay plate and mixed with the FLIPR TETRA. (final conc.; 600 nmol/L 4α-PDD)
(9) The fluorescent intensity was measured with FLIPR TETRA system for 7 min from the point of time addition the compound solution, at Ex 488 nm, Em 510-570 nm wavelength.
TRPV4 inhibitory activity (IC50 value) of a compound was calculated according to the following procedure.
(10) In the presence of the compound, the difference between maximal and minimal of fluorescent intensity value for 3 min from just before addition of 4α-PDD solution was calculated, and it was referred as Max-Min value. Max-Min value of the Ruthenium Red at 20 μM was defined as 100% inhibitory activity, Max-Min value in the absence of the compound was defined as 0% inhibitory activity. TRPV4 inhibitory activity of the compound was calculated by the following formula.
as §4
(11) Inhibitory activity was calculated at 10 points with twice serial dilution, in the final concentration of the compound from 3.85 μg/mL to 7.5 ng/mL, the IC50 value (nmol/L) was calculated by logistic approximation method.

[4] abbreviates: Test Example 2, 4α-PDD stimulation, read-out: Test 2 IC50.

T1 sequence (Q9HBA0 whole entry): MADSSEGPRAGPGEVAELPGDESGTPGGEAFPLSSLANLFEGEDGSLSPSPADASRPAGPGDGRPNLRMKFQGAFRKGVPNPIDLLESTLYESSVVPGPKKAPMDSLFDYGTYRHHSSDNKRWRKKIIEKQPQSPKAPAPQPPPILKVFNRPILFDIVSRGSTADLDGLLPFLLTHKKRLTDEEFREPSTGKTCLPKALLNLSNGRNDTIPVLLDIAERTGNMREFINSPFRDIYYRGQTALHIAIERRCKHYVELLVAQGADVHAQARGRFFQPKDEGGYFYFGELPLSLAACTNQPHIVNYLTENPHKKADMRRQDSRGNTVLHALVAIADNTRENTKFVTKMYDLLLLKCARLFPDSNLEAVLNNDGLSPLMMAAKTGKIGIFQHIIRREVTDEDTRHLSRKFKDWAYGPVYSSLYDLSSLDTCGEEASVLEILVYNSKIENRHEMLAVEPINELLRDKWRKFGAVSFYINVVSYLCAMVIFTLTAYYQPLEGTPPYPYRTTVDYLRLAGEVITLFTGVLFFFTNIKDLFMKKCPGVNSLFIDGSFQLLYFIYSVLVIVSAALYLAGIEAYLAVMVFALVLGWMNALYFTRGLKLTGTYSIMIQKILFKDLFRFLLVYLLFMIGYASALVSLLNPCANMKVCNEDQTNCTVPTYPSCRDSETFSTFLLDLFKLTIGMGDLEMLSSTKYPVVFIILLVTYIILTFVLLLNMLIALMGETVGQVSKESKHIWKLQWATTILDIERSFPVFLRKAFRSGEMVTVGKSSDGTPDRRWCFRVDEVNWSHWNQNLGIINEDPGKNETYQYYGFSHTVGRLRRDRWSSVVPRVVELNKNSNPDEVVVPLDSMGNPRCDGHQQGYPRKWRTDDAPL

The IC50 is the concentration needed to halve the response being measured. In general, Ki refers to the equilibrium dissociation constant of an inhibitor or competing ligand from its target. In the case of `Cc1nc(C)c(-c2csc(NC(=O)C3CC3(F)F)n2)s1` (centres unmarked) [Compound I-27], the IC50 in experiment [1] fell in the range of 100 to 1000 nM. Moreover, the Ki in experiment [2] was below 100 nM.
For `Cc1nc(C(F)F)sc1-c1csc(NC(=O)Cc2ccc(S(=O)(=O)C(F)(F)F)cc2)n1` [Compound I-29], in that order: 100 to 1000 nM and 100 to 1000 nM.
For `Cc1nc(CF)sc1-c1csc(NC(=O)Cc2ccc(S(=O)(=O)C(F)(F)F)cc2)n1` [Compound I-31], in that order: below 100 nM and below 100 nM.
For `Cc1nc(C)c(-c2csc(NC(=O)C(C)C)n2)s1` [Compound I-32], in that order: 100 to 1000 nM and below 100 nM.
On to `Cc1nc(C)c(-c2csc(NC(=O)C3CC(F)(F)C3)n2)s1` [Compound I-34], for which, in experiment [1], the IC50 fell in the range of 100 to 1000 nM. In addition, the Ki in experiment [2] was below 100 nM.
For `Cc1nc(C)c(-c2csc(NC(=O)Cc3ccc(CS(=O)(=O)C(F)(F)F)cc3)n2)s1` [Compound I-35], in that order: below 100 nM and below 100 nM.
For `Cc1nc(C)c(-c2csc(NC(=O)Cc3ccc(S(=O)(=O)C(F)F)cc3)n2)s1` [Compound I-36], in that order: below 100 nM and below 100 nM.
Take `Cc1nc(C)c(-c2csc(NC(=O)C3Cc4ccccc4C3)n2)s1` [Compound I-43]: the IC50 in experiment [1] is below 100 nM. The inhibition constant Ki in experiment [2] is below 100 nM.
On to `Cc1nc(C)c(-c2csc(NC(=O)C3CCN(c4ccccc4)C3)n2)s1` (centres unmarked) [Compound I-46], for which the IC50 in experiment [1] was below 100 nM. In experiment [2], the Ki was below 100 nM.
With `Cc1nc(C)c(-c2csc(NC(=O)C3CC(=O)N(Cc4ccccc4)C3)n2)s1` (centres unmarked) [Compound I-47], the IC50 in experiment [1] lay in the range of 1000 to 8000 nM. In addition, the Ki in experiment [2] lay in the range of 100 to 1000 nM.
`Cc1nc(C)c(-c2csc(NC(=O)Cc3ccc(F)c(Cl)c3)n2)s1` [Compound I-49]: in experiment [1], the IC50 was below 100 nM. The Ki in experiment [2] was below 100 nM.
Consider `Cc1nc(C)c(-c2csc(NC(=O)Cn3cc(Cl)cn3)n2)s1` [Compound I-50], for which the IC50 in experiment [1] lay in the range of 100 to 1000 nM. In experiment [2], the Ki was below 100 nM.
For `Cc1nc(C)c(-c2csc(NC(=O)CC3CC(F)(F)C3(F)F)n2)s1` (centres unmarked) [Compound I-53], in that order: 100 to 1000 nM and 100 to 1000 nM.
For `Cc1nc(C)c(-c2csc(NC(=O)N(C)c3ccc(Br)cc3)n2)s1` [Compound I-59], in experiment [1], the IC50 lay within 100 to 1000 nM. Moreover, the Ki in experiment [2] fell in the range of 100 to 1000 nM.
`Cc1nc(C)c(-c2csc(NC(=O)Cc3ccc(S(=O)(=O)C(F)(F)F)cc3)n2)s1` [Compound I-186]: the IC50 in experiment [1] is below 100 nM. Also, in experiment [2], the Ki was below 100 nM.
As for `N=C(N)Nc1ncc(-c2csc(NC(=O)c3ccccc3)n2)s1` [Compound I-187], in experiment [3] (setting [4]), the IC50 is 1000 to 8000 nM.
For `Cc1nc(C)c(-c2csc(NC(=O)C3CCCCC3)n2)s1` [Compound I-223], the IC50 in experiment [1] fell in the range of 100 to 1000 nM. In addition, in experiment [2], the Ki is 100 to 1000 nM.
Consider `Cc1nc(C)c(-c2csc(NC(=O)C3CCCC3)n2)s1` [Compound I-224], for which the IC50 in experiment [1] fell in the range of 100 to 1000 nM. Also, the Ki in experiment [2] was below 100 nM.
As for `Cc1nc(C)c(-c2csc(NC(=O)Cc3ccc(Br)cc3)n2)s1` [Compound I-225], the IC50 in experiment [1] was below 100 nM. In addition, in experiment [2], the Ki is below 100 nM.
With `Cc1nc(C)c(-c2csc(NC(=O)C3CCC3)n2)s1` [Compound I-226], the IC50 in experiment [1] was in the range of 100 to 1000 nM. In experiment [2], the Ki was below 100 nM.
Turning to `c1ccc(Nc2nc(-c3cccs3)cs2)nc1` [II-9], the IC50 in experiment [3] (setting [4]) is 1000 to 8000 nM.
Still for that read-out and setting: as for `O=C(Nc1nc(-c2ccc(Cl)s2)cs1)c1cccc(C(F)(F)F)c1` [II-10], the figure is 1000 to 8000 nM; as for `O=C(Nc1nc(-c2ccc(Br)s2)cs1)c1cccc(F)c1` [II-11], 1000 to 8000 nM.
For `CC(C)(C)c1ccc(C(=O)Nc2nc(-c3ccc(Cl)s3)cs2)cc1` [II-12], the IC50 in experiment [3] (setting [4]) lay within 1000 to 8000 nM.
The same measure, in the same setting: as for `CC(=O)Nc1nc(-c2ccc(Br)s2)cs1` [II-13], the figure is 1000 to 8000 nM; as for `O=C(Nc1nc(-c2ccc(Br)s2)cs1)c1ccc(Br)s1` [II-14], 1000 to 8000 nM.
The same measure, in the same setting: as for `O=C(Nc1nc(-c2cccs2)cs1)C1c2ccccc2Oc2ccccc21` [II-15], the figure is 1000 to 8000 nM; as for `Cc1ccc(-c2csc(NC(=O)COc3ccc(Br)cc3)n2)s1` [II-16], 100 to 1000 nM.
The same measure, in the same setting: in the case of `O=C(CSc1ccccc1)Nc1nc(-c2ccc(Br)s2)cs1` [II-17] it was 1000 to 8000 nM; in that of `C/C(=N\Nc1nc(-c2cccs2)cs1)c1ccc(Cl)c(Cl)c1` [II-18], 1000 to 8000 nM; in that of `COc1ccc(/C(C)=N/Nc2nc(-c3sc(C)nc3C)cs2)cc1` [II-19], 100 to 1000 nM.
Take `Cc1cccc(Nc2nc(-c3sc(N)nc3C)cs2)c1` [II-20]: in experiment [3] (setting [4]), the IC50 lay in the range of 100 to 1000 nM.
For `Cc1nc(N)sc1-c1csc(Nc2ccc(Br)cc2Br)n1` [II-21], in experiment [3] (setting [4]), the IC50 lay within 1000 to 8000 nM.
`Cc1nc(C)c(-c2csc(Nc3ccccn3)n2)s1` [II-22]: the IC50 in experiment [3] (600 nmol/L 4α-PDD, Fluo3-AM, read-out: TRPV4 inhibitory activity (IC50 value)) was 73 nM; in experiment [3] (setting [4]), below 100 nM.
On to `Cc1ccnc(Nc2nc(-c3sc(N)nc3C)cs2)c1` [II-23], for which, in experiment [3] (setting [4]), the IC50 was 1000 to 8000 nM.
Still for that read-out and setting: in the case of `C=CCNc1nc(-c2sc(C)nc2C)cs1` [II-24] it was 1000 to 8000 nM.
